Test results taken from patent publication US20160227778A1, “SEED DRESSING FOR CONTROLLING PHYTOPATHOGENIC FUNGI” (BAYER INTELLECTUAL PROPERTY GMBH, priority 2004, published 2016).

Columns and labels:
Assay type in all cases: in vivo
Rhizoctonia solani [1] = test: Rhizoctonia solani test (cotton)/seed treatment; settings: dry seed dressing, application rate 50 g/100 kg of seed, evaluated after 7-8 days, method of Abbot
Description: Rhizoctonia solani Test (Cotton)/Seed Treatment The active compounds are applied as dry seed dressing. This is prepared by extending the active compounds in question with ground minerals to give a finely pulverulent mixture which ensures uniform distribution on the seed surface. To dress the seed, the seed together with the seed dressing is shaken for 3 minutes in a closed glass bottle. 2×50 seed corns are sown in standardized soil in seed trays. Perlite infected with Rhizoctonia solani (5 ml/seed tray) is scattered between the seed and covered with Lecaton, and the seeds are then cultivated in a greenhouse at a temperature of about 22° C. and 15 hours of light per day. After 7-8 days, all the emerged and diseased plants are evaluated. The effect is calculated by the method of Abbot. 0% means an efficacy which corresponds to that of the control, whereas an efficacy of 100% means that no infection is observed.

Pyrenophora graminea = Pyrenophora graminea test (barley)/seed treatment/outdoor trial; settings: summer barley, infected seed, outdoor trial, application rate 10 g/100 kg of seed, evaluated at begin of heading
Description: Pyrenophora graminea Test (Barley)/Seed Treatment/Outdoor Trial
Cereal species: Summer barley Plot size: 2 m^2 Amount of seed per plot: 40 g Number of repetitions: 3 Development stage at the time of evaluation: Begin of heading
The active compounds are applied as a commercial formulation.
For dressing, the preparation is initially charged in a dressing beaker and placed on a dressing shaker. The infected seed is added and shaken for about 2-3 min, until homogenization is achieved.
After preparing the soil in a customary manner, outdoor sowing is carried out at a time which favours infection by the disease.
Evaluation is carried out at a time when all the disease symptoms are clearly present. 0% means an efficacy which corresponds to that of the control, whereas an efficacy of 100% means that no infection is observed.

Rhizoctonia solani [2] = test: Rhizoctonia solani test (rice)/seed treatment; settings: rice (cultivar Koshihikari), seed dressing, application rate 200 g/100 kg of seed, evaluated seven days after inoculation
Description: Rhizoctonia solani Test (Rice)/Seed Treatment Rice seed (cultivar Koshihikari) is soaked at 15° C. in distilled water for 10 days, transferred into fresh water and, whilst being ventilated, soaked at 32° C. for 1 day. The seed is then dried at room temperature for a number of hours. 7.6 mg of the test substance are dissolved in 200 μl of acetone in a test vessel, an aliquot of seed (corresponding to 3.8 g of dry seed) is added, the samples mixed and the acetone is aspirated. The seed is sown on soil in a plastic vessel having a diameter of 7.5 cm and cultivated in an incubator at 32° C. with high atmospheric humidity in the dark for 3 days. The seedlings are then cultivated in a greenhouse at on average 21° C. for 2 weeks. In each case 5 seedlings are transferred into 5 plastic vessels having a diameter of 12 cm and cultivated in a greenhouse at on average 25° C. for 5-6 weeks. Mycelia of Rhizoctonia solani which had been grown on sterile barley corns are placed at the foot of the rice plant (5 cm from the soil surface) and incubated in a glass chamber with high atmospheric humidity at on average 27° C. Seven days after the inoculation, the degree of infection is evaluated and the efficacy is calculated. [table]

Ustilago nuda = Ustilago nuda test (barley)/seed treatment/outdoor trial; settings: summer barley, infected seed, outdoor trial, application rate 10 g/100 kg of seed, evaluated at begin to middle of blossom
Description: Ustilago nuda Test (Barley)/Seed Treatment/Outdoor Trial Cereal species: Summer barley Amount of seed per plot: 40 g Plot size: 2 m^2 Number of repetitions: 3 Development stage: Begin to middle of blossom The active compounds are applied as a commercial formulation. For dressing, the preparation is initially charged in a dressing beaker and placed on a dressing shaker. The infected seed is added and shaken for about 2-3 min, until homogenization is achieved. After preparing the soil in a customary manner, outdoor sowing is carried out at a time which favours infection by the disease. Evaluation is carried out at a time when all the disease symptoms are clearly present. 0% means an efficacy which corresponds to that of the control, whereas an efficacy of 100% means that no infection is observed.

Cc1nn(C)c(F)c1C(=O)Nc1ccccc1C(C)CC(C)C (stereo not shown) [drawing 46] gave an Efficacy in % (Rhizoctonia solani [1]) of 100%.

Compound CC(C)CC(C)c1sccc1NC(=O)c1cn(C)nc1C(F)(F)F (stereo not shown) [drawing 47] has an Efficacy in % (Rhizoctonia solani [1]) of 100%.

In the case of Cc1nn(C)c(F)c1C(=O)Nc1ccccc1C(C)CC(C)C (stereo not shown) [drawing 48], the Efficacy in % (Pyrenophora graminea) was 97%.

For CC(C)CC(C)c1sccc1NC(=O)c1cn(C)nc1C(F)(F)F (stereo not shown) [drawing 49], the Efficacy in % (Pyrenophora graminea) was 97%.

Compound Cc1nn(C)c(F)c1C(=O)Nc1ccccc1C(C)CC(C)C (stereo not shown) [drawing 50] has an Efficacy in % (Rhizoctonia solani [2]) of 91%.

For Cc1nn(C)c(F)c1C(=O)Nc1ccccc1C(C)CC(C)C (stereo not shown) [drawing 51], the Efficacy in % (Ustilago nuda) was 100%.

For CC(C)CC(C)c1sccc1NC(=O)c1cn(C)nc1C(F)(F)F (stereo not shown) [drawing 52], the Efficacy in % (Ustilago nuda) was 99%.
